# Source: patent US5728580A, “Methods and culture media for inducing single cell suspension in insect cell lines” (Cornell Research Foundation, Inc., priority 1996, dated 1998)
# Assays:
# TN5B1-4 cells [1] = test: Inducing single-cell formation of clumped TN5B1-4 cells in suspension culture; format: cell-based, Trichoplusia ni; conditions: for Inducing single-cell formation / dispersing clumped cells (in words): clumped suspension culture; for Inducing single-cell formation / dispersing clumped cells (in words) / Concentration adequate to maintain single-cell suspension: serum-free medium
# [2] = system: AcMNPV binding to TN5B1-4 cells; test: Binding of [3H]thymidine-labeled AcMNPV budded virus to TN5B1-4 cells; format: cell-based; conditions: for Virus Binding: 30 min; for Binding, A. Binding in Presence of Polyanions: 5 × 10^6 cells/ml for 30 min, control is binding in absence of polyanion; for Binding, C. Pretreatment of Cells: cells pretreated 3 h, washed once, control is untreated cells; for Binding, C. Pretreatment of Cells / Binding, B. Pretreatment of Virus: binding 1 h without polymer; for Binding, B. Pretreatment of Virus: virus pretreated 2 h, pelleted, control is untreated virus
# [3] = system: AcMNPV infection of TN5B1-4 cells; conditions: cited from earlier work
# [4] = system: AcMNPV infection of TN5B1-4 cells; test: Viral infection inhibition in TN5B1-4 (cell growth post-infection); format: cell-based; conditions: at concentrations required to induce and maintain single-cell suspension; MOI 0.1 to 20
# Protocol: (§1) The inhibition of binding was further explored by considering the effect of increasing polyanion concentration on the binding of virus to TN5B1-4 and SF21. Less than 20 μg/ml of both dextran sulfate and heparin were required to attain maximum inhibition. […] Dextran sulfate reduced the binding of the virus to TN5B1-4 but not to SF21. […] The cell growth post-infection was used as a measure of virus infection since infection is known to inhibit cell division. Hereafter, synchronous infection is used to refer to infection with no measurable cell division post-infection.
# The cells were infected at MOI of 0.1, 0.5, 1, 5, 10, and 20 to determine the lowest MOI for synchoronous infection.
# TN5B1-4 cells [5] = conditions: for Toxic above this level: tn5b1-4 cells
# Protocol: Three different molecular weights of dextran sulfate, derived from dextran of MW 5000, 20000, 500000, were evaluated.
# Compounds were evaluated for their ability to induce single cell suspension in 50-ml spinner flasks at 160 rpm. Control cells were passaged at least 10 times in suspension before they were used in any experiments. […] A qualitative score for reduction in clumping relative to control cells was assigned to cells grown in the presence of test compound at the end of the third passage. The protocol for enzyme treatment was the same, but the seeding density was 1×10^6 cells/ml and cells were evaluated after 24 h.
# TN5B1-4 cells [6] = test: Growth kinetics of TN5B1-4 cells in spinner flasks; format: cell-based, Trichoplusia ni; set-up: dose or concentration left out as unconfirmed
# Protocol: TN5B1-4 suspension cells were grown in 50-ml spinner flasks (Bellco Glass, Vineland, N.J.) with a working volume of 40 ml at 160 rpm. SF21 cells were grown in similar vessels at 130 rpm in Ex-Cell 400 medium. The screw caps of the flasks were replaced with silicone foam closures for better oxygen transfer. Cells were passaged every 3 days.
# The growth of TN5B1-4 DS 5000 cells in suspension was scaled-up to a 1.25 L Celligen reactor agitated with a marine impeller at 90 rpm. The cells were subcultured three times in this reactor with no clump formation. The doubling time was 20 h and a maximum density of 6-7×10^6 cells/ml was reached.
# [7] = system: AcMNPV infection of SF21 cells; test: Viral infection inhibition in SF21; format: cell-based
# Protocol: as §1
# [8] = system: AcMNPV binding to SF21 cells; test: Binding of AcMNPV virus to SF21 cells; format: cell-based
# Protocol: as §1
# [9] = 100 μg/ml, control = binding of virus to cells with no additive
# [10] = 25 μg/ml, control = binding of virus to cells with no additive
# [11] = 1000 μg/ml, control = binding of virus to cells with no additive
substance,measurement,setting,value
DEAE-dextran [DEAE dextran],Inducing single-cell formation / dispersing clumped cells (in words),TN5B1-4 cells [1],ineffective
same,Virus Binding,"[2]; 5 μg/ml, control = binding of virus to cells with no additive",74 ± 9 % of Control
heparin disaccharides,Virus Binding,[2]; [9],103 ± 2 % of Control
Heparin,Fold higher concentration required to induce single-cell suspension relative to dextran sulfate,TN5B1-4 cells [1],20 fold
same,Inhibition of viral infection (as known),[3],known to seriously inhibit infection
same,Concentration required to attain maximum inhibition of virus binding (threshold value),[2],Less than 20 μg/ml
same,Virus Binding,[2]; [9],63 ± 3 % of Control
hyaluronate,Inducing single-cell formation / dispersing clumped cells (in words),TN5B1-4 cells [1],did not induce single-cell formation
same,Virus Binding,[2]; [9],99 ± 1 % of Control
κ-carrageenan,Virus Binding,[2]; [9],73 ± 6 % of Control
protamine sulfate,Inducing single-cell formation / dispersing clumped cells (in words),TN5B1-4 cells [1],ineffective
same,Virus Binding,"[2]; 50 μg/ml, control = binding of virus to cells with no additive",virus ppt.
dextran,Inducing single-cell formation / dispersing clumped cells (in words),TN5B1-4 cells [1],ineffective
same,Virus Binding,[2]; [9],97 ± 2 % of Control
same,Virus Binding,"[2]; 100 μg/ml, polymer of MW 580 kd, control = no additive",99 ± 3 % of Control
pentosan sulfate,Concentration adequate to maintain single-cell suspension,TN5B1-4 cells [1],100 µg/mL
same,Inhibition of viral infection,[4],not severely inhibited
same,Virus Binding,[2]; [10],53 ± 3 % of Control
same,"Binding, A. Binding in Presence of Polyanions",[2]; 100 μg/ml,55 ± 9 % of control
same,Virus Binding,[2]; [9],55 ± 9 % of Control
same,"Binding, C. Pretreatment of Cells",[2]; 100 μg/ml,96 ± 7 % of control
same,"Binding, B. Pretreatment of Virus",[2]; 100 μg/ml,99 ± 4 % of control
dextran sulfate [dextran sulfate 500000],Toxic above this level,TN5B1-4 cells [5],above 5 μg/ml
glucose 6-phosphate,Inducing single-cell formation / dispersing clumped cells (in words),TN5B1-4 cells [1],ineffective
chondroitin disaccharides [Chondroitin sulfate disaccharides],Inducing single-cell formation / dispersing clumped cells (in words),TN5B1-4 cells [1],did not disperse clumped cells
same,Virus Binding,[2]; [9],99 ± 6 % of Control
dextran sulfate [dextran sulfate II],Virus Binding,[2]; [10],82 ± 4 % of Control
sodium polyphosphoric acid,Inducing single-cell formation / dispersing clumped cells (in words),TN5B1-4 cells [1],did not induce single-cell formation
same,Virus Binding,[2]; [9],98 ± 1 % of Control
fructose 6-phosphate,Inducing single-cell formation / dispersing clumped cells (in words),TN5B1-4 cells [1],ineffective
polyphosphate,Inducing single-cell formation / dispersing clumped cells (in words),TN5B1-4 cells [1],did not induce single-cell formation
sodium carboxymethylcellulose [sodium CMC],Inducing single-cell formation / dispersing clumped cells (in words),TN5B1-4 cells [1],did not induce single-cell formation
same,Virus Binding,[2]; [11],107 ± 1 % of Control
Pluronic F68,Inducing single-cell formation / dispersing clumped cells (in words),TN5B1-4 cells [1],ineffective
same,Virus Binding,[2]; [11],98 ± 2 % of Control
λ-carrageenan,Toxic above this level,TN5B1-4 cells [5],> 25 µg/mL
same,Virus Binding,[2]; [10],68 ± 3 % of Control
chondroitin sulfate,Virus Binding,[2]; [9],94 ± 3 % of Control
polyvinyl sulfate,Inducing single-cell formation / dispersing clumped cells (in words),TN5B1-4 cells [1],as effective as dextran sulfate
same,Concentration adequate to maintain single-cell suspension,TN5B1-4 cells [1],25 µg/mL
same,Inhibition of viral infection,[4],inhibited viral infection even at high MOI
same,Virus Binding,"[2]; 10 μg/ml, control = binding of virus to cells with no additive",52 ± 4 % of Control
same,"Binding, A. Binding in Presence of Polyanions",[2]; 25 μg/ml,52 ± 4 % of control
same,Virus Binding,[2]; [10],52 ± 1 % of Control
same,"Binding, C. Pretreatment of Cells",[2]; 25 μg/ml,95 ± 6 % of control
same,"Binding, B. Pretreatment of Virus",[2]; 25 μg/ml,96 ± 5 % of control
dermatan sulfate,Virus Binding,[2]; [9],65 ± 7 % of Control
fucoidan sulfate,Virus Binding,[2]; [10],53 ± 1 % of Control
same,Virus Binding,[2]; [9],53 ± 1 % of Control
dextran sulfate [dextran sulfate I],Inducing single-cell formation in serum-containing media,"TN5B1-4 cells [1]; serum-containing media, up to 300 μg/ml",complete elimination of clumping was not possible
same,Concentration adequate to maintain single-cell suspension,TN5B1-4 cells [1],25 µg/mL
same,Inhibition of viral infection,[4],not severely inhibited
same,Effect on doubling time and maximum cell density,TN5B1-4 cells [6],does not affect
same,Inhibition of viral infection in SF21,[7],inhibited infection
same,Effect on binding of virus to SF21,[8],did not affect binding
same,Toxic at concentrations greater than,TN5B1-4 cells [5],greater than 0.1%
same,Concentration required to attain maximum inhibition of virus binding (threshold value),[2],Less than 20 μg/ml
same,"Binding, A. Binding in Presence of Polyanions",[2]; 25 μg/ml,42 ± 2 % of control
same,Virus Binding,[2]; [10],42 ± 2 % of Control
same,"Binding, C. Pretreatment of Cells",[2]; 25 μg/ml,93 ± 9 % of control
same,"Binding, B. Pretreatment of Virus",[2]; 25 μg/ml,103 ± 3 % of control
same,Reduction of the attachment rate constant,[2]; at concentration required to maintain single-cell suspension,six-fold
